36 compounds from patent US11505558B1, “Antiviral heterocyclic compounds” (Enanta Pharmaceuticals, Inc., priority 2019, dated 2022) can be followed below.

Bounds are passed on as bounds.

Experiment [1] concerns genotype A, "Long" strain RSV. Nature of the experiment: RSV-A assay (CPE, ATPlite readout in Hep-2 cells). It is filed as cell-based. As to conditions: human respiratory syncytial virus, HEp-2, Hep-2 cells, genotype A "Long" strain RSV, MOI 0.1; read-out: Human RSV-A (“Long” strain) EC50. The gist of the method:
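Hep-2 cells (8,000/well) received 2-fold serial compound dilutions in duplicate and RSV Long strain at MOI 0.1. After 5 days' incubation, cell health was read as ATP by ATPlite luminescence, with virus-only and uninfected controls defining max and minimum CPE; EC50 reported.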
A general note: Cellular ATP, detected with luciferase, serves as a proxy for viable cell number.

Experiment [2] concerns recombinant HMPV CAN97-83 (MPV-GFP1). Briefly: HMPV antiviral assay (MPV-GFP1 eGFP fluorescence in Vero E6 cells). In kind it is cell-based. As to conditions: human metapneumovirus, Vero C1008, 120 h, read-out: HMPV EC50. The procedure: HMPV antiviral activity was evaluated using a recombinant version of HMPV CAN97-83 engineered to contain the coding sequence for enhanced green fluorescence protein (eGFP) in the 3′ end of the virus genome (MPV-GFP1, ViraTree). Vero E6 cells ([…]) were seeded at a density of 12,000 cells/100 μL/well into 96-well cell plates one day prior to the assay. On the day of screening, the cell culture medium was aspirated from the wells and cells were washed twice with serum-free Eagle's Modified Essential Medium (EMEM, ATCC #) containing 1% penicillin-streptomycin (Invitrogen) (SF-EMEM). Cell washes were performed by dispensing 100 μL SF-EMEM per well and immediately aspirating the wash medium from the well. Following the second wash step, serum-free OptiMEM (Invitrogen, Cat No.) (SF-OptiMEM) containing 0.5 μg/mL TPCK-Trypsin (VENDOR) and 1% penicillin-streptomycin was added to the cells at 50 μL/well. Compounds were added into the 96-well plates using a JANUS automated liquid handling system (VENDOR). Compounds were initially diluted 1:50 into an intermediate 96-well plate containing SF-OptiMEM prior to transfer to the assay plate (25 μL/well). Each of the test compounds were tested in duplicate wells at final concentrations starting from 8 μM or 2 μM using ½ stepwise dilutions for a total of 8 points. Virus infection was performed by preparing a working stock of MPV-GFP1 at a multiplicity of infection (MOI) equal to 0.05/25 μL and aliquoting 25 μL of virus inoculum to the compound and positive control wells. SF-OptiMEM was added (25 μL/well) to the appropriate wells to serve as a virus-free negative control for the assay. The final DMSO concentration of all wells is 0.5%. Plates were incubated at 32° C., 5% CO2 for 5 days.
After 5 days incubation, eGFP fluorescence intensity was measured at […] using a Spectramax i3X plate reader (VENDOR). Percent viral inhibition was calculated using the following equation: y=[[…]−(XQ/XP)]×100 Where XQ is the fluorescence intensity measured in a well containing recombinant MPV-GFP1-infected, compound-treated cells and XP is the average fluorescence intensity measured in the wells containing untreated cells infected with recombinant virus. EC50 values were then calculated by non-linear regression using a four parameter curve logistic equation. The curve fit model employed was XLFit Dose Response One Site Model 200: y=(A+(B/(1+((x/C)^D)))) Where A is the minimum y value, B is the maximum y value, C is the log EC50 value, and D is the slope factor. […] EC50 ranges are as follows: A<0.5 μM; B>0.5 μM.

The term EC50 denotes the concentration needed to bring the measured effect to its halfway point. Take `COc1cc(C(=O)NCC(O)(c2cc3c(c(-c4ccc(F)cc4)n2)OC[C@]3(C)C(=O)NC2CC2)C(F)(F)F)cc2cccnc12` (some centres unmarked) [Example 27]: the EC50 in experiment [1] was below 0.2 µM; in experiment [2] it was below 0.5 µM. In the case of `COc1nccc(C(=O)NC[C@](O)(c2cc3c(c(-c4ccc(F)cc4)n2)OC[C@]3(C)CNCC2CC2)C(F)(F)F)n1` [Example 34], the EC50 in experiment [1] is above 0.2 µM; in experiment [2] it was above 0.5 µM. The like results for `C[C@]1(CNCC2CC2)COc2c1cc([C@@](O)(CNC(=O)c1ccnc(C(F)(F)F)n1)C(F)(F)F)nc2-c1ccc(F)cc1` [Example 35] were, in that order, above 0.2 µM and above 0.5 µM. On to `COc1ncc(C(=O)NC[C@](O)(c2cc3c(c(-c4ccc(F)cc4)n2)OC[C@]3(C)CNCC2CC2)C(F)(F)F)s1` [Example 36], for which the values for the EC50 in experiment [1] and in experiment [2] were above 0.2 µM and above 0.5 µM, respectively. As to `COc1cc(C(=O)NC[C@](O)(c2cc3c(c(-c4ccc(F)cc4)n2)OC[C@]3(C)CNCC2CC2)C(F)(F)F)ccn1` [Example 37], the EC50 was above 0.2 µM in experiment [1] and above 0.5 µM in experiment [2]. In the same order, the values of `COc1cc(C(=O)NC[C@](O)(c2cc3c(c(-c4ccc(F)cc4)n2)OC[C@]3(C)CNC2(C)CC2)C(F)(F)F)cc2cccnc12` [Example 44] are below 0.2 µM and above 0.5 µM.

With `CNC(=O)[C@@]1(C)COc2c1cc([C@@](O)(CNC(=O)c1cc(OC)c3ncccc3c1)C(F)(F)F)nc2-c1ccc(F)cc1` [Example 46], the EC50 is below 0.2 µM in experiment [1] and below 0.5 µM in experiment [2]. Regarding `COc1cc(C(=O)NC[C@](O)(c2cc3c(c(-c4ccc(F)cc4)n2)OC[C@]3(C)C(=O)NC2COC2)C(F)(F)F)cc2cccnc12` [Example 52], the EC50 in experiment [1] is below 0.2 µM; in experiment [2] it was below 0.5 µM. Take `COc1cc(C(=O)NC[C@](O)(c2cc3c(c(-c4ccc(F)cc4)n2)OC[C@]3(C)C(=O)NO)C(F)(F)F)cc2cccnc12` [Example 53]: the results for the EC50 in experiment [1] and in experiment [2] were below 0.2 µM and above 0.5 µM, respectively. Regarding `CCNC(=O)[C@@]1(C)COc2c1cc([C@@](O)(CNC(=O)c1cc(OC)c3ncccc3c1)C(F)(F)F)nc2-c1ccc(F)cc1` [Example 56], the EC50 in experiment [1] was below 0.2 µM; in experiment [2], below 0.5 µM.

As for `C[C@]1(C(N)=O)COc2c1cc([C@@](O)(CNC(=O)c1cc(OC3CC3)c3ncccc3c1)C(F)(F)F)nc2-c1ccc(F)cc1` [Example 61], the EC50 is below 0.2 µM in experiment [1] and below 0.5 µM in experiment [2]. The like results for `COc1cc(C(=O)NC[C@](O)(c2cc3c(c(-c4ccc(F)cc4)n2)OC[C@]3(C)C(N)=O)C(F)(F)F)ccc1OC1CC1` [Example 62] were, in that order, below 0.2 µM and below 0.5 µM. In the same order, the values of `COc1cc(C(=O)NC[C@](O)(c2cc3c(c(-c4ccc(F)cc4)n2)OC[C@]3(C)C(N)=O)C(F)(F)F)cc2ccccc12` [Example 69] are above 0.2 µM and above 0.5 µM. In the same order, the values of `COc1cc(C(=O)NC[C@](O)(c2cc3c(c(-c4ccc(F)cc4)n2)OC[C@]3(C)CC#N)C(F)(F)F)cc2cccnc12` [Example 74] are below 0.2 µM and below 0.5 µM. For the compound `COc1cc(C(=O)NC[C@](O)(c2cc3c(c(-c4ccc(F)cc4)n2)OC[C@]3(C)CC(N)=O)C(F)(F)F)cc2cccnc12` [Example 75], the EC50 is below 0.2 µM in experiment [1] and above 0.5 µM in experiment [2].

As for `C[C@]1(C(N)=O)COc2c1cc([C@](O)(CNC(=O)c1cc(OC3CC3)c3ncccc3c1)C(F)(F)F)nc2-c1ccc(F)c(Cl)c1` [Example 79], the EC50 in experiment [1] was below 0.2 µM; in experiment [2], below 0.5 µM. In the same order, the values of `C[C@]1(C(N)=O)COc2c1cc([C@](O)(CNC(=O)c1cc(OC3CC3)c3ncccc3c1)C(F)(F)F)nc2-c1ccc(F)c(F)c1` [Example 80] are below 0.2 µM and below 0.5 µM. Turning to `C[C@]1(C(N)=O)COc2c1cc([C@](O)(CNC(=O)c1cc(OC3CC3)c3ncccc3c1)C(F)(F)F)nc2-c1csc2c(F)cccc12` [Example 81], the EC50 in experiment [1] is below 0.2 µM; in experiment [2] it was below 0.5 µM. In the same order, the values of `C[C@]1(C(N)=O)COc2c1cc([C@](O)(CNC(=O)c1cc(OC3CC3)c3ncccc3c1)C(F)(F)F)nc2-c1ccc(C(F)(F)F)cc1` [Example 82] are below 0.2 µM and above 0.5 µM. In the case of `C[C@]1(C(N)=O)COc2c1cc([C@](O)(CNC(=O)c1cc(OC3CC3)c3ncccc3c1)C(F)(F)F)nc2-c1ccc(C#N)cc1` [Example 83], the figures for the EC50 in experiment [1] and in experiment [2] were below 0.2 µM and above 0.5 µM, respectively. `C[C@]1(C(N)=O)COc2c1cc([C@](O)(CNC(=O)c1cc(OC3CC3)c3ncccc3c1)C(F)(F)F)nc2-c1ccc(F)c(C#N)c1` [Example 84]: the EC50 in experiment [1] is above 0.2 µM; in experiment [2] it was above 0.5 µM. In the same order, the values of `C[C@]1(C(N)=O)COc2c1cc([C@@](O)(CNC(=O)c1cc(OC3CC3)c3ncccc3c1)C(F)(F)F)nc2-c1ccc(F)c(C(F)(F)F)c1` [Example 85] are below 0.2 µM and below 0.5 µM. Regarding `COc1cc(C(=O)NC[C@](O)(c2cc3c(c(-c4ccc(F)c(Cl)c4)n2)OC[C@]3(C)C(N)=O)C(F)(F)F)cc2cccnc12` [Example 86], the results for the EC50 in experiment [1] and in experiment [2] were below 0.2 µM and below 0.5 µM, respectively.

As to `COc1cc(C(=O)NC[C@](O)(c2cc3c(c(-c4ccc(F)c(F)c4)n2)OC[C@]3(C)C(N)=O)C(F)(F)F)cc2cccnc12` [Example 87], the EC50 in experiment [1] is below 0.2 µM; in experiment [2], above 0.5 µM.

On to `COc1cc(C(=O)NC[C@](O)(c2cc3c(c(-c4ccc(F)c(Cl)c4)n2)OC[C@]3(C)C(N)=O)C(F)(F)F)ccc1OC1CC1` [Example 88], for which the EC50 was below 0.2 µM in experiment [1] and below 0.5 µM in experiment [2]. For `COc1cc(C(=O)NC[C@](O)(c2cc3c(c(-c4ccc(F)c(F)c4)n2)OC[C@]3(C)C(N)=O)C(F)(F)F)ccc1OC1CC1` [Example 89], the EC50 in experiment [1] is below 0.2 µM; in experiment [2], below 0.5 µM. For the compound `C[C@]1(C(N)=O)COc2c1cc([C@@](O)(CNC(=O)c1ccc(OC3CC3)c(OC3CC3)c1)C(F)(F)F)nc2-c1ccc(F)c(Cl)c1` [Example 90], the EC50 in experiment [1] is below 0.2 µM; in experiment [2], below 0.5 µM. Take `C[C@]1(C(N)=O)COc2c1cc([C@@](O)(CNC(=O)c1ccc(OC3CC3)c(OC3CC3)c1)C(F)(F)F)nc2-c1ccc(F)c(F)c1` [Example 91]: the figures for the EC50 in experiment [1] and in experiment [2] were below 0.2 µM and below 0.5 µM, respectively. In the same order, the values of `C[C@]1(C(N)=O)COc2c1cc([C@@](O)(CNC(=O)c1ccc(OC3CC3)c(OC3CC3)c1)C(F)(F)F)nc2-c1csc2c(F)cccc12` [Example 92] are below 0.2 µM and below 0.5 µM. As for `C[C@]1(C(N)=O)COc2c1cc([C@@](O)(CNC(=O)c1ccc(OC3CC3)c(OC3CC3)c1)C(F)(F)F)nc2-c1ccc(C(F)(F)F)cc1` [Example 93], the EC50 in experiment [1] was below 0.2 µM; in experiment [2], above 0.5 µM. In the same order, the values of `C[C@]1(C(N)=O)COc2c1cc([C@@](O)(CNC(=O)c1ccc(OC3CC3)c(OC3CC3)c1)C(F)(F)F)nc2-c1ccc(C#N)cc1` [Example 94] are below 0.2 µM and below 0.5 µM. The like results for `C[C@]1(C(N)=O)COc2c1cc([C@@](O)(CNC(=O)c1ccc(OC3CC3)c(OC3CC3)c1)C(F)(F)F)nc2-c1ccc(F)c(C#N)c1` [Example 95] were, in that order, below 0.2 µM and above 0.5 µM. Turning to `C[C@]1(C(N)=O)COc2c1cc([C@@](O)(CNC(=O)c1cc(O)c3ncccc3c1)C(F)(F)F)nc2-c1ccc(F)cc1` [Example 363], the EC50 in experiment [2] is below 0.5 µM. As to `COc1cc(C(=O)NC[C@](O)(c2cc3c(c(-c4ccc(F)cc4)n2)OCC3(F)C(N)=O)C(F)(F)F)cc2cc(C(F)(F)F)cnc12` (some centres unmarked) [Example 671], the EC50 in experiment [1] was below 0.2 µM.

Turning to `COc1cc(C(=O)NC[C@](O)(c2cc3c(c(-c4ccc(F)cc4)n2)OCC3(F)C(N)=O)C(F)(F)F)cn2cc(C3CC3)nc12` (some centres unmarked) [Example 672], the EC50 in experiment [1] is below 0.2 µM.

As to `C[C@@H](O)COc1ccc(C(=O)NC[C@](O)(c2cc3c(c(-c4ccc(F)cc4)n2)OC[C@]3(F)C(N)=O)C(F)(F)F)cc1OC1CC1` [Example 674], the EC50 in experiment [1] was above 0.2 µM.
